Results taken from US20240400980A1, “PORCINE PLURIPOTENT STEM CELL CULTURE MEDIUM AND USE THEREOF” (CHINA AGRICULTURAL UNIVERSITY, priority 2021, published 2024).
“Also recorded” adds a separate entry of the source. Blank lines part the entries; values can stand above or below the molecule they belong to.

Legend:
Assay type in all cases: cell-based, porcine
pgEpiSCs [1] = assay: RT-qPCR of marker genes in pgEpiSCs in modified 3i/LAF medium; conditions: for marker gene mRNA expression after removal of the component: component removed from 3i/LAF medium, qRT-PCR
Description: Total RNA of pgEpiSCs was extracted using a RNAprep Pure Cell/Bacteria Kit (TIANGEN, DP430), and then reverse transcribed into cDNA using 5× all-in-one RT premix (Abm, G490). PCR was performed using 2× RealStar Green Power Mixture (GenStar, A311-05) on the LightCycler 480 II real-time system (Roche). Comparative CT (2^−ΔΔCT) method was used to analyze the data. ACT was calculated using EF1A as an internal control. Three biological replicates were performed for all experiments. Primers for quantitative real-time PCR were listed in the key resource table.
(§1) Based on the prepared 3i/LAF medium and its culture method in2 above, the requirement of various factors for long-term maintenance in vitro of pgEpiSCs was test by the inventors under the same conditions as in 2 above, except for removing small molecule inhibitors and cytokines from the medium one by one.
(§2) In addition, based on the prepared 3i/LAF medium and its culture method in 2 above, the following tests were also performed by the inventors under the same conditions as in 2 above.

pgEpiSCs [2] = assay: Clone morphology and alkaline phosphatase (AP) staining of pgEpiSCs in modified 3i/LAF medium; conditions: for clone morphology / AP staining after removal of the component: component removed from 3i/LAF medium
Text: The alkaline phosphatase staining for pgEpiSCs was based on the Alkaline Phosphatase Detection Kit (Millipore, SCR004).
The specific experimental steps followed the instructions for the kit.
as §1, §2
According to the 3i/LAF medium and its culture method prepared in 2 above, the inventors also investigated the effect of the adjusted or replaced medium on the long-term in vitro maintenance of pgEpiSCs on the basis of adjusting the concentrations of the small molecule inhibitors and cytokines or replacing the compositions of the small molecule inhibitors and cytokines in the culture medium one by one without altering the other conditions.
Experimental method: pgEpiSCs were cultured with the adjusted medium, after which AP staining was performed on the cultured pgEpiSCs of P1 (indicating the pgEpiSCs after 1 passage in the adjusted medium) or P3 (indicating the pgEpiSCs after 3 passages in the adjusted medium). The specific steps of AP staining are described in the section of Experimental Methods described previously.
Principle of the experiment: undifferentiated stem cells will express Ap at high level. By staining fixed stem cells, differentiated cells show no color and undifferentiated cells show purple or red color.

pgEpiSCs [3] = assay: Immunofluorescence of POU5F1 and EOMES in pgEpiSCs in modified 3i/LAF medium; conditions: component removed from 3i/LAF medium
Description: Cells were washed with DPBS (Gibco, C14190500BT) and fixed with 4% paraformaldehyde at room temperature for 30 minutes, then washed again with DPBS, permeabilized in 0.1% Triton X-100 for 20 minutes, and blocked with 3% BSA for 1 hour. Cells were incubated with the primary antibody diluted with 3% BSA overnight at 4° C. Cells were then washed 3 times with the washing buffer (DPBS containing 0.1% Triton X-100 and 0.1% Tween 20) for 3 minutes each time. Cells were incubated with diluted secondary antibody and washing buffer together at room temperature for 1 hour, then washed 3 times with the washing buffer for 5 minutes, followed by nuclear staining with DAPI (Roche Life Science, 10236276001) for 3 minutes.
as §1

pgEpiSCs [4] = assay: Proliferation and passage of pgEpiSCs with FGF2 removed or varied; conditions: for proliferation and passage of pgEpiSCs: FGF2 removed, with addition of PD0325901
Description: Porcine EpiSCs were cultured in 12-well plates. Cell samples were seeded in triplicate at a density of 2×10^4 cells per well. Cells were counted every 12 hours. Cells were digested and counted using the Luna™ automated cell counter at each time point. The results of the three counts were averaged and plotted. The cell doubling time was calculated as follows: Doubling Time (DT)=24×[lg2/(lgNt−IgN0)], where 24 was the cell culture time (hours); Nt was the number of cells cultured for 48 hours; and No was the number of cells recorded at 24 hours.
as §1

phosphorylated STAT3 = assay: Western blot of phosphorylated STAT3 in pgEpiSCs; conditions: with or without LIF; Western blotting
Description: Total proteins in cells were extracted using cell lysis buffer (Beyotime Biotechnology, P0013), and nuclear and cytoplasmic proteins were extracted using a cell nucleus and cytoplasmic protein extraction kit (Beyotime Biotechnology, P0027) supplemented with protease and phosphatase inhibitors (P1050). The concentration of extracted proteins was measured using a Bradford protein detection kit (Bio-red, 5000201). An equal amount of proteins (15 μg) were separated by SDS-PAGE gel electrophoresis, and then transferred from the gel to the Immobilon-P transfer membrane (Merck Millipore; pore size: 0.45 μm; IPVH00010). The blots were blocked in 5% skim milk powder (Sangon Biotech, A600669-0250) in TBST (20 mM Tris, pH 7.5; 150 mM NaCl; 0.1% Tween 20) at room temperature for 1 hour, and then incubated with the antibody diluted in 5% skim milk powder in TBST at 4° C. overnight. The next day, the blots were rinsed 3 times with TBST for 5 minutes each time, and then incubated with HRP conjugated secondary antibody diluted in 5% skim milk powder in TBST at room temperature for 1 hour, and finally rinsed 3 times with TBST for 5 minutes each time. The blots were developed using SuperSignal® West Dura Extended Duration Substrate (Thermo Fisher Scientific, 34075), followed by analysis of the band strength of the target protein using the CLINX chemiluminescence software. […]

[5] = IWR-1-endo replaced in 3i/LAF medium

Molecule: Cc1c[nH]c(-c2cnc(NCCNc3ccc(C#N)cn3)nc2-c2ccc(Cl)cc2Cl)n1 [CHIR99021]
marker gene mRNA expression after removal of the component (pgEpiSCs [1]): downregulated the expression of cell proliferation related genes such as LIN28A, C-MYC, ETV4 and ETV5 | expression of POU5F1 and GATA6 at high concentration (pgEpiSCs [1]; high concentration of CHIR99021 in 3i/LAF medium): downregulation of the pluripotency marker POU5F1 and significant upregulation of the endodermal marker GATA6; also recorded: the expression of the pluripotency gene POU5F1 was reduced, and the expression of the lineage differentiation gene GATA6 was upregulated, presenting a heterogeneous expression pattern | expression levels of TBX3 and ESRRB (pgEpiSCs [1]; increasing concentration of CHIR99021 in 3i/LAF medium): increased with increasing concentration

clone morphology / AP staining after removal of the component (pgEpiSCs [2]): unclear boundaries of pgEpiSC clones
Molecule: O=C(Nc1cccc2cccnc12)c1ccc(N2C(=O)[C@@H]3[C@H](C2=O)[C@@H]2C=C[C@H]3C2)cc1 [IWR-1-endo]
marker gene mRNA expression after removal of the component (pgEpiSCs [1]): significant downregulation of core pluripotency factors such as NANOG, POU5F1, SOX2 and REX1; also recorded: upregulation of the gastrulation formation marker genes BMP2, BMP4, EOMES and T | POU5F1 and EOMES immunostaining after removal of the component (pgEpiSCs [3]): reduced or heterogeneous accumulation of the pluripotency factor POU5F1, while promoting the expression of the mesoderm and endoderm progenitor cell marker EOMES

Molecule: O=C(NOC[C@H](O)CO)c1ccc(F)c(F)c1Nc1ccc(I)cc1F [PD0325901]
proliferation and passage of pgEpiSCs (pgEpiSCs [4]): could not proliferate or passage normally

clone morphology after addition of the inhibitor (pgEpiSCs [2]; inhibitor added to the medium): irregular clone morphology
Molecule: NC(=O)c1ccc(-c2nc(-c3ccc4c(c3)OCO4)c(-c3ccccn3)[nH]2)cc1 [SB431542]
BMP4 and BMP downstream transcription factors ID2, ID3 after addition of the inhibitor (pgEpiSCs [1]; inhibitor added to the medium): significant increase in BMP4 and BMP downstream transcription factors (such as ID2 and ID3) | NANOG levels after addition of the inhibitor (pgEpiSCs [1]; inhibitor added to the medium): significant decline in NANOG levels | pluripotency markers POU5F1 and REX1 after addition of the inhibitor (pgEpiSCs [1]; inhibitor added to the medium): significant decrease in pluripotency markers (such as POU5F1 and REX1)

Molecule: COc1ccc(N(C(=O)Oc2c(C)cccc2C)c2ccnc(Nc3ccc(N4CCN(C)CC4)cc3)n2)c(OC)c1 [WH-4-023]
marker gene mRNA expression after removal of the component (pgEpiSCs [1]): upregulation of the gastrulation formation marker genes BMP2, BMP4, EOMES and T | POU5F1 and EOMES immunostaining after removal of the component (pgEpiSCs [3]): reduced or heterogeneous accumulation of the pluripotency factor POU5F1, while promoting the expression of the mesoderm and endoderm progenitor cell marker EOMES

Molecule: Oc1nc(-c2ccc(C(F)(F)F)cc2)nc2c1CSCC2 [XAV939]
maintenance of pluripotency after replacing IWR-1-endo (pgEpiSCs [2]; [5]): unable to maintain pluripotency for a long time | passages until AP positivity was lost (pgEpiSCs [2]; [5]): around 8 passages | expression of core pluripotency factor OCT4 (POU5F1) (pgEpiSCs [1]; [5]): downregulated | expression of pluripotency factors REX1, STELLA, and ESRRB (pgEpiSCs [1]; [5]): downregulated

Molecule: FGF2: fibroblast growth factor; recombinant human FGF-basic, Peprotech 100-18B
proliferation and passage of pgEpiSCs (pgEpiSCs [4]): could not proliferate or passage normally | proliferation of pgEpiSCs at high concentration (pgEpiSCs [4]; high concentration of FGF2): cells proliferated faster at the high concentration | proliferation ability of pgEpiSCs at reduced concentration (pgEpiSCs [4]; reduced concentration of FGF2, otherwise unchanged conditions): significantly reduced the proliferation ability of pgEpiSCs

Molecule: LIF: cytokine of 3i/LAF; recombinant human LIF, PeproTech 300-05
detection of phosphorylated STAT3 (phosphorylated STAT3): phosphorylated STAT3 could only be detected in the presence of LIF | clone morphology / AP staining after removal of the component (pgEpiSCs [2]): not a necessary condition for maintaining the morphology of pgEpiSC clones

B1: Activin A: a member of the TGF-β superfamily; recombinant human Activin A, Peprotech 120-14E (protein, UniProt P08476 311-426, looked up)
Inhibin beta A chain: GLECDGKVNICCKKQFFVSFKDIGWNDWIIAPSGYHANYCEGECPSHIAGTSGSSLSFHSTVINHYRMRGHSPFANLKSCCVPTKLRPMSMLYYDDGQNIIKKDIQNMIVEECGCS
modifications: Inhibin beta A chain recombinant homodimer
marker gene mRNA expression after removal of the component (pgEpiSCs [1]): reduced levels of the pluripotency marker NANOG
